Data taken from patent publication US9661855B2, “Cyclic aza-sila compounds as insect repellants” (COUNCIL OF SCIENTIFIC & INDUSTRIAL RESEARCH, priority 2012, dated 2017).
Read-outs that look alike come from different tables or passages of the source.

Tests used:
[1] = test system: Ae. aegypti females mosquitoes; assay: Mosquito repellence test, protection period (time until the first bite), treated muslin screen over human volunteer's hand; assay type: in vivo; conditions: 27±1° C.; for Protection period in hrs @ 0.25 mg/cm^2: 0.25 mg/cm^2 on muslin cloth screen; for Protection period in hrs @ 0.50 mg/cm^2: 0.50 mg/cm^2 on muslin cloth screen
Experimental: Mosquito repellence activity was assessed on the basis of protection period (hr) offered by various analogues of DEET against Mosquito bites. The protection period was measured on the basis of the concept” time until the first bite” pioneered by Granette (Comparison of mosquito repellence test under laboratory and field conditions. Granett, P. Proc Ann Meet NJ Mosq Assoc, 1938, vol. 25, 51). Repellence tests were carried out against 3-5 days old, blood starved but sucrose fed (0.5M solution), Ae. aegypti females mosquitoes, drawn from well-established laboratory colony maintained at 27±1° C. Temperature and 70±5% Relative humidity. The light intensity was regulated at 300-500 lux for testing against laboratory, colonized Ae. aegypti, a day biting mosquito. Human volunteer's hand covered with polythene disposable gloves was introduced in the cage containing about 200 hungry mosquitoes. Mosquitoes were allowed to bite on the back of the hand through muslin screen stuck over a small window (2 cm×2 cm) cut out in the polythene bag. Various analogues of DEET were loaded on the muslin cloth screen instead of direct skin application so as to avoid the potential risk involved in the evaluation of natural products of unknown mammalian toxicity. All the test solutions were made in Analar grade Acetone The muslin cloth screen was first treated with the analogue taking two doses @0.25 mg/cm2 and 0.5 mg/cm2 and the solvent was evaporated before use. Control muslin screen was treated with solvent alone. After introduction of the hand covered with the polythene glove with the treated muslin screen into the mosquito cage, number of mosquito bites received in subsequent 5 minutes was counted. In the event of no bites in the initial 5 minutes exposure, the test hand was exposed repeatedly after every consecutive ½ hr for 5 minutes test till the time a confirmed bite was received. Number of hours before the receipt of a confirmed bite (Techniques for the evaluation of insect repellents. A critical review (Schreck, C. E, Ann Rev Entomol, 1977, vol 22, 101) represented the protection period offered by the test compound. In control rate of mosquito bite was 10-12 bites/min. All the tests were carried out at 27±1° C. temperature between 9.00-17.00 hrs.

insect bites = conditions: cited from earlier work
[2] = test system: Anopheles stephensi Liston; conditions: against Anopheles stephensi Liston; topical, human volunteers; cited from earlier work
Aedesaegypti (L.) = conditions: against Aedesaegypti (L.); topical, human volunteers; cited from earlier work

| Compound | melting point | Protection period in hrs @ 0.25 mg/cm^2 [1] | Protection period in hrs @ 0.50 mg/cm^2 [1] | further results |
| --- | --- | --- | --- | --- |
| C[Si]1(C)CCN(C(=O)c2ccccc2)CC1 | 65 to 67 °C |  |  |  |
| Cc1cccc(C(=O)N2CC[Si](C)(C)CC2)c1 | 65 to 68 °C |  |  |  |
| C[Si]1(C)CCN(C(=O)c2cc(Cl)ccc2Cl)CC1 | 79 to 81 °C |  |  |  |
| Cc1ccccc1C(=O)N1CC[Si](C)(C)CC1 |  | 4.09 ± 0.053 h | 5.41 ± 0.135 h |  |
| Cc1ccc(C(=O)N2CC[Si](C)(C)CC2)cc1 |  | 3.08 ± 0.056 h | 4.16 ± 0.067 h |  |
| CCN(CC)C(=O)c1cccc(C)c1 [DEET, N,N-Diethyl-meta-toluamide] |  |  |  | hours of protection (insect bites; 100% DEET): up to 12 hours; hours of protection (insect bites; lower concentrations of 20%-40% DEET): 3 to 8 h |
| C[Si]1(C)CCN(C(=O)c2cnccn2)CC1 |  | 2.14 ± 0.76 h | 4.22 ± 0.69 h |  |
| C[Si]1(C)CCN(C(=O)c2ccccn2)CC1 | 101 to 103 °C |  |  |  |
| CCCCCCCCCCC(=O)N1CC[Si](C)(C)CC1 |  | 2.14 ± 0.065 h | 5.05 ± 0.207 h |  |
| Cc1cccc(C(=O)N2CC[Si](C)(C)CC2)c1 [drawing 33] |  | 1.47 ± 0.13 h | 2.15 ± 0.072 h |  |
| CCN(CC)C(=O)Cc1cccc(C(F)(F)F)c1 [N,N-diethyl[(alpha,alpha,alpha-trifluoro-m-tolyl)]acetamide] |  |  |  | biting-deterrent activities compared with DEET [2]: superior to DEET; biting-deterrent activities compared with DEET (Aedesaegypti (L.)): superior to DEET |
| CCN(CC)C(=O)c1cccc(C(F)(F)F)c1 [N,N,diethyl[3-(trifluoromethyl)]benzamide] |  |  |  | biting-deterrent activities compared with DEET [2]: superior to DEET; biting-deterrent activities compared with DEET (Aedesaegypti (L.)): superior to DEET |
| CCN(CC)C(=O)Cc1cccc(Br)c1 [N,N-diethyl(3-bromophenyl) acetamide] |  |  |  | biting-deterrent activities compared with DEET [2]: superior to DEET; biting-deterrent activities compared with DEET (Aedesaegypti (L.)): superior to DEET |
